Laboratory results taken from ChEMBL document CHEMBL4619712, “Double-component diazeniumdiolate derivatives as anti-cancer agents” (Bioorg Med Chem, 2020).

Assays:
[1] = system: BT-474; experiment: Anticancer activity against human BT474 cells assessed as inhibition of cell growth after 72 hrs by MTT or MTS assay; format: functional, cell-based; conditions: BT-474, 72 h
[2] = system: A549; experiment: Anticancer activity against human A549 cells assessed as inhibition of cell growth after 72 hrs by MTT or MTS assay; format: functional, cell-based; conditions: A549, 72 h
[3] = system: Jurkat E6.1; experiment: Anticancer activity against human Jurkat E6-1 cells assessed as inhibition of cell growth after 72 hrs by MTT or MTS assay; format: functional, cell-based; conditions: Jurkat E6.1, 72 h
[4] = system: CCRF-CEM; experiment: Anticancer activity against human CCRF-CEM cells assessed as inhibition of cell growth after 72 hrs by MTT or MTS assay; format: functional, cell-based
[5] = system: MDA-MB-231; experiment: Anticancer activity against human MDA-MB-231 cells assessed as inhibition of cell growth after 72 hrs by MTT or MTS assay; format: functional, cell-based; conditions: MDA-MB-231, 72 h
[6] = Prodrug conversion assessed as Escherichia coli GST catalyzed NO release at 1 uM measured after 5 hrs in presence of GSH by DAF-FM DA reagent based fluorescence spectrophotometric analysis; format: ADME

SMILES | IC50 [1] | IC50 [2] | IC50 [3] | IC50 [4] | IC50 [5] | fold change (FC) [6]
O=[N+]([O-])c1ccc(O/N=[N+](\[O-])N2CCN(CCCN3CCN(/[N+]([O-])=N/Oc4ccc([N+](=O)[O-])cc4[N+](=O)[O-])CC3)CC2)c([N+](=O)[O-])c1 | 10.8 µM | 18.8 µM | 4.06 µM | 3.73 µM | > 20 µM | 2
O=[N+]([O-])c1ccc(O/N=[N+](\[O-])N2CCN(CCN3CCN(/[N+]([O-])=N/Oc4ccc([N+](=O)[O-])cc4[N+](=O)[O-])CC3)CC2)c([N+](=O)[O-])c1 | 10.7 µM | 17.1 µM | 3.71 µM | 2.64 µM | 17.6 µM | 2
